Results taken from patent US6380226B1, “Salts of an anti-migraine indole derivatives” (Pfizer Inc, priority 1994, dated 2002).
“Also recorded” adds a separate entry of the source. Where a name gives a salt, the structure may show the parent alone. Read-outs that look alike come from different tables or passages of the source. Blank lines part the entries; values can stand above or below the compound they belong to.

Assays:
Type in all cases: physicochemical
[1] = Hygroscopicity study: moisture change by weight analysis and Karl Fischer titrimetry; conditions: for colour change of sample accompanying water uptake: hygroscopicity study, 40° C./75% RH
Procedure: (§1) Hygroscopicity/Solid State Stability Studies Samples (ca 10 mg) were sieved (250 μm) and then stored at each of the following conditions of temperature (T) and relative humidity (RH) for up to 4 weeks: 30° C. at II, 75 and 90% RH and 40° C. at II, 75 and 90% RH, the required humidities being achieved using the appropriate saturated salt solution in a dessicator. Measurements of water content changes were conducted by weight analysis using a microbalance and by Karl Fischer titrimetry (KFT), and chemical and physical stability evaluation by high performance liquid chromatography (HPLC) and DSC. KFT was performed using a Mitsubishi moisturemeter and ca 10 mg of each sample.

[2] = Solid state stability study: chemical and physical stability by HPLC and DSC; conditions: for solid state instability (associated with water uptake): hygroscopicity studies
Procedure: as §1, with “DSC. HPLC analyses were” for “DSC. KFT was”, “performed on” for “performed using”, “a LDC isocratic system under the following conditions: column—Novapak C18, 5μm, 15 cm; mobile phase—pH 6.0, 60:40 v/v 0.02M KH2PO4 (0.5% triethylamine): methanol; detection—UV (254 nm); flow rate—1.0 ml/min; injection volume —20 μl; sample 0.1 mg/ml in mobile phase.” for “a Mitsubishi moisturemeter and ca 10 mg of each sample.”

Compression studies = conditions: for behaviour on compression (colour change, melting, punch filming): 5 tonnes for 1 minute, 13 mm punch and die set
Procedure: Samples (200 mg) were compressed using a bench IR press (Graseby Specac Model 15.011) at 5 tonnes for 1 minute using a 13 mm punch and die set, then assessed for colour change and evidence of melting. Further analysis (DSC and HPLC) was conducted after grinding of the compact using a mortar and pestle.

[3] = Polymorphic conversion by DSC
Procedure: Samples (ca 5 mg) of each form were analysed using a Perkin-Elmer 7 Series thermal analyser at a scanning rate of 20° C. per minute. For identification of the respective endotherms, shown in the representative DSC thermograms of FIGS. 3A and 3B, vide supra. DSC was used to determine both the polymorphic conversions of the β-forms of the hydrobromide and hemisulphate salts to their respective α-forms, and also the conversion of the α-form of the hydrochloride salt to its β-form which is believed to be an anhydrate-hydrate transition.

[4] = listed as α-form of the hydrobromide salt
[5] = listed as α-form of the hemisulphate salt
[6] = listed as β-form of the hemisulphate salt

SMILES: CN1CCC[C@@H]1Cc1c[nH]c2ccc(CCS(=O)(=O)c3ccccc3)cc12 [α-HBr, 3-(N-Methyl-2(R)-pyrrolidinylmethyl)-5-(2-phenylsulphonylethly)-1H-indole hydrobromide, α-form]
weight over the course of the hygroscopicity study (in words) ([1]; 30 and 40° C., 11, 75 and 90% RH, up to 4 weeks): relatively stable weights | moisture change determined by % weight change ([1]; T/RH 30/11 (30° C., 11% RH), Week 1): −0.45% | moisture change determined by % weight change ([1]; T/RH 30/11, Week 2): −0.51% | moisture change determined by % weight change ([1]; T/RH 30/11, Week 3): +0.20% | moisture change determined by % weight change ([1]; T/RH 30/11, Week 4): +0.09% | moisture change determined by % weight change ([1]; T/RH 30/75, Week 1): +0.08% | moisture change determined by % weight change ([1]; T/RH 30/75, Week 2): +0.01% | moisture change determined by % weight change ([1]; T/RH 30/75, Week 3): +0.17% | moisture change determined by % weight change ([1]; T/RH 30/75, Week 4): +0.25% | moisture change determined by % weight change ([1]; T/RH 30/90, Week 1): +0.53% | moisture change determined by % weight change ([1]; T/RH 30/90, Week 2): +0.46% | moisture change determined by % weight change ([1]; T/RH 30/90, Week 3): +0.50% | moisture change determined by % weight change ([1]; T/RH 30/90, Week 4): +0.49% | moisture change determined by % weight change ([1]; T/RH 40/11, Week 1): −0.48% | moisture change determined by % weight change ([1]; T/RH 40/11, Week 2): +0.58% | moisture change determined by % weight change ([1]; T/RH 40/11, Week 3): −0.51% | moisture change determined by % weight change ([1]; T/RH 40/11, Week 4): −0.49% | moisture change determined by % weight change ([1]; T/RH 40/75, Week 1): +0.06% | moisture change determined by % weight change ([1]; T/RH 40/75, Week 2): +0.23% | moisture change determined by % weight change ([1]; T/RH 40/75, Week 3): 0.00% | moisture change determined by % weight change ([1]; T/RH 40/75, Week 4): +0.11% | moisture change determined by % weight change ([1]; T/RH 40/90, Week 1): +0.87% | moisture change determined by % weight change ([1]; T/RH 40/90, Week 2): +1.27% | moisture change determined by % weight change ([1]; T/RH 40/90, Week 3): +1.16% | moisture change determined by % weight change ([1]; T/RH 40/90, Week 4): +1.23% | hygroscopicity (in words) [1, 4]: lack of hygroscopicity | change in DSC profile ([2]; T=40° C./RH=90% samples): No change | chemical stability by HPLC analysis ([2]; all of the conditions studied (30 and 40° C., 11, 75, 90% RH, up to 4 weeks)): confirmed its stability | behaviour on compression (colour change, melting, punch filming) (Compression studies; [4]): no evidence of a change in sample appearance or punch filming | changes to the thermogram (melting point, enthalpy of fusion) after compression or grinding (Compression studies; DSC after compression or grinding): no changes | polymorphic conversion [3, 4]: No polymorphic transitions

SMILES: CN1CCC[C@@H]1Cc1c[nH]c2ccc(CCS(=O)(=O)c3ccccc3)cc12 [β-form of the hydrobromide salt]
polymorphic conversion [3]: undergoes polymorphic conversion to a higher melting form

Continued, in another order:

behaviour on compression (colour change, melting, punch filming) (Compression studies): did not melt on compaction
SMILES: CN1CCC[C@@H]1Cc1c[nH]c2ccc(CCS(=O)(=O)c3ccccc3)cc12 [α-form of the hydrochloride salt, 3-(N-methyl-2(R)-pyrrolidinylmethyl)-5-(2-phenylsulphonylethyl)-1H-indole]
water uptake (in words) ([1]; T 40° C., RH 75%, seven days (1 week)): a significant amount of water had been taken up; also recorded: picked up a significant amount of moisture | polymorphic conversion [3]: converts to the hydrated β-form; also recorded: transformation of the α-form to the β-form

moisture change determined by % weight change ([1]; T/RH 40/75, Week 1): +6.0% | moisture change determined by % weight change ([1]; T/RH 40/75, Week 2): +4.85% | moisture change determined by % weight change ([1]; T/RH 40/75, Week 3): +5.46% | moisture change determined by % weight change ([1]; T/RH 40/75, Week 4): +4.04% | colour change of sample accompanying water uptake [1, 5]: no concomitant colour | hygroscopicity (in words) [1, 5]: extremely hygroscopic | solid state instability (associated with water uptake) [2, 5]: does not display solid state instability
SMILES: CN1CCC[C@@H]1Cc1c[nH]c2ccc(CCS(=O)(=O)c3ccccc3)cc12 [α-½H2SO4, 3-(N-methyl-2(R)-pyrrolidinylmethyl)-5-(2-phenylsulphonylethyl)-1H-indole]

hygroscopicity (in words) ([1]; T=40° C./RH=75%, weight change and KFT at week 4): non-hygroscopic
SMILES: CN1CCC[C@@H]1Cc1c[nH]c2ccc(CCS(=O)(=O)c3ccccc3)cc12 [β-form of the hydrochloride salt, 3-(N-methyl-2(R)-pyrrolidinylmethyl)-5-(2-phenylsulphonylethyl)-1H-indole]
solid state instability (associated with water uptake) [2]: does not display solid state instability; also recorded: no solid state instability being detected | behaviour on compression (colour change, melting, punch filming) (Compression studies): melting and sticking of the disk to the punches were observed; also recorded: melts and causes sticking of the disk to the punches

moisture change determined by % weight change ([1]; T/RH 40/75, Week 1): +1.33% | moisture change determined by % weight change ([1]; T/RH 40/75, Week 2): +3.79% | moisture change determined by % weight change ([1]; T/RH 40/75, Week 3): +3.38% | moisture change determined by % weight change ([1]; T/RH 40/75, Week 4): +1.69% | hygroscopicity (in words) ([1]; relative humidities (RH) higher than 50%): very hygroscopic
SMILES: CN1CCC[C@@H]1Cc1c[nH]c2ccc(CCS(=O)(=O)c3ccccc3)cc12 [β-½H2SO4, 3-(N-methyl-2(R)-pyrrolidinylmethyl)-5-(2-phenylsulphonylethyl)-1H-indole]
colour change of sample accompanying water uptake [1, 6]: change in colour of the sample from cream to yellow | behaviour on compression (colour change, melting, punch filming) (Compression studies; [6]): undergoes a colour change on compression and causes punch-filming during tabletting; also recorded: undergoes a colour change on compression and also causes punch filming on compaction | polymorphic conversion [3, 6]: water uptake can cause polymorphic conversion to an alternative form; also recorded: polymorphic conversion to the α-form
